Measured values taken from patent US20220242870A1, “HETEROCYCLE-FUSED PYRIMIDINE DERIVATIVE AND USE THEREOF” (VORONOI Inc., priority 2019, published 2022).

How the values were obtained:
human FLT3-ITD enzyme = molecular target: T1, human FLT3-ITD enzyme (Homo sapiens, UniProt P36888); experiment: FLT3 enzyme inhibitory ability (ADP-Glo kinase assay); format: biochemical; details: human FLT3-ITD enzyme 10 ng, ATP 10 μM, 25° C. 1 hour
T1 sequence (P36888 1-993): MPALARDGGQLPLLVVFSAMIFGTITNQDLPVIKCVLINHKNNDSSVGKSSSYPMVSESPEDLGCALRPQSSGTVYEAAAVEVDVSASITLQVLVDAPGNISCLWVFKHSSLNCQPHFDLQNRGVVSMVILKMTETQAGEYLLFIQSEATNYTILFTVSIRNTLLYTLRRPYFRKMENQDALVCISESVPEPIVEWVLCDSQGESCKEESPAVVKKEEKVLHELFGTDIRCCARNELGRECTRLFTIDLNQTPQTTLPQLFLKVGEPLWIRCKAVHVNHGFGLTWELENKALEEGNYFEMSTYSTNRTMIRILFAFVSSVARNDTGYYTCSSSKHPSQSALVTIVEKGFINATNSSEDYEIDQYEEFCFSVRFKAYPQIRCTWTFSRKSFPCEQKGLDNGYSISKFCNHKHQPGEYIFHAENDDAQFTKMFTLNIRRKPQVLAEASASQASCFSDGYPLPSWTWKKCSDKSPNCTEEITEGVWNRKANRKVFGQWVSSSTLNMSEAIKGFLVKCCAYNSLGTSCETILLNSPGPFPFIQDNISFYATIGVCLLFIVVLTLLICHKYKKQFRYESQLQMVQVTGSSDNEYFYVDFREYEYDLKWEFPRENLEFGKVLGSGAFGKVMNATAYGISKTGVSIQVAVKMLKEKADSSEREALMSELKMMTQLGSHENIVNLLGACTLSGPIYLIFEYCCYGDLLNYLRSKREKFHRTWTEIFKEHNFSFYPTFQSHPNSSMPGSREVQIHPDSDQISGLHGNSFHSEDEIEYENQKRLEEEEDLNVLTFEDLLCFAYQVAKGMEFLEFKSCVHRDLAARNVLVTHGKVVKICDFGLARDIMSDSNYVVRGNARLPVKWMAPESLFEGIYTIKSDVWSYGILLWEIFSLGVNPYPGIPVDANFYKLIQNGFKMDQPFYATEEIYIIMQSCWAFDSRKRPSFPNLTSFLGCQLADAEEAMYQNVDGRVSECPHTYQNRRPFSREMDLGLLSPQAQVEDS
Protocol: The inhibitory activities of the example compounds according to the present invention to the FLT3-ITD enzyme were evaluated. Specifically, the compound of the present invention was reacted with a purified human FLT3-ITD enzyme (Signalchem). A composition of 40 mM Tris-HCl pH 7.4, 20 mM MgCl2, 0.5 mg/mL BSA and 50 μM DTT was used as a reaction buffer, and reactions of all test matters were performed on the reaction buffer. Upon the test, human FLT3-ITD enzyme (10 ng), purified ATP (10 μM) and a specific substrate solution were reacted at 25° C. for 1 hour, and then the enzyme activity was identified using an in vitro ADP-Glo™ kinase assay (Promega). The enzyme activity reaction solution, the ADP-Glo reaction solution and the enzyme ability detection solution were reacted in a ratio of 2:2:1, and the activity inhibition degree of the enzyme was measured as luminescence. Using the solvent-treated group that was not treated with the compound as a control group, the enzyme activity inhibition degree according to the treatment concentration of each compound was calculated based on the enzyme activity fluorescence degree, and the concentration of each compound that inhibited 50%, IC50 (nM), was determined using Prism Software (version 5.01, GraphPad).

human GST-HPK1 (1-346) = molecular target: T2, human GST-HPK1 (1-346) (Homo sapiens, UniProt Q92918); experiment: HPK1 enzyme inhibitory ability (ADP-Glo kinase assay); format: biochemical; details: human GST-HPK1 3 ng, ATP 3 uM, 25° C. 2 hours
T2 construct: purified human GST-HPK1 (1-346, Signalchem) enzyme; purchased Signalchem
T2 sequence (Q92918 1-346): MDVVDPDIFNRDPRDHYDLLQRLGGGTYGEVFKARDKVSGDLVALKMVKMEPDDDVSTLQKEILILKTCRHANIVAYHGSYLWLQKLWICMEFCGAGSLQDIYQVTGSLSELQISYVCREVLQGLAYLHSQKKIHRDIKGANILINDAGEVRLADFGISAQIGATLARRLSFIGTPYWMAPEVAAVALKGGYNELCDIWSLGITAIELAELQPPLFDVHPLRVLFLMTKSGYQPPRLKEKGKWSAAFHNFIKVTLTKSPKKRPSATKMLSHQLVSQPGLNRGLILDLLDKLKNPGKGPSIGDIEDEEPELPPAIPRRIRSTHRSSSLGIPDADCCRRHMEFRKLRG
Protocol: In order to evaluate the inhibitory activities of the example compounds according to the present invention on the HPK1 (hematopoietic progenitor kinase 1) enzyme, the following experiment was performed. The example compounds were reacted with the purified human GST-HPK1 (1-346, Signalchem) enzyme to evaluate the enzyme inhibitory ability by the following method. As the reaction buffer, a composition of 40 mM Tris-HCl pH 7.4, 20 mM MgCl2, 0.5 mg/mL BSA and 50 uM DTT was used, and reactions of all test matters were performed on the reaction buffer. Upon the test, the human GST-HPK1 (3 ng) enzyme, the purified ATP (3 uM) and a specific substrate solution were reacted at 25° C. for 2 hours, and then the enzyme activity was identified using an in vitro ADP-Glo™ kinase assay (promega). The enzyme activity reaction solution, the ADP-Glo reaction solution and the enzyme ability detection solution were reacted in a ratio of 2:2:1 to measure luminescence. The enzyme activity inhibition degree according to the treatment concentrations of the respective compounds was calculated based on the fluorescence of the enzyme activity of the solvent control group that was not treated with the compound, where the concentration of each compound that inhibited enzyme activity inhibition by 50% was determined as an IC50 (nM) value.

MCF-7 cells = experiment: Breast cancer cell line proliferation inhibitory activity (CellTiter-Glo 2.0); format: cell-based; details: Homo sapiens, MCF7, 120 hours
Protocol: In order to evaluate the breast cancer cell line cell proliferation inhibitory activities of Examples according to the present invention, the following experiment was performed. Breast cancer cells of MCF-7 (Korean Cell Line Bank) were planted in a clear bottom white 96-well plate (Corning) so as to be 3×10^3/150 μl/well, and a culture solution comprising the compound continuously diluted in multiples of 3 at 12 concentrations (0.00001-2 mM) and a DMSO control group was added by 0.5 μl/well and treated so that the final concentration was 0.00005-10 μM, and then cultured in a 37° C. CO2 incubator for 120 hours. After 120 hours, the plate treated with the compound is taken out, and CellTiter-Glo® 2.0 Assay (Promega) solution is treated at 150 μl/well and then they mix well. They mix well at room temperature for 10 minutes or so, and the fluorescence is measured with a microplate reader. The data were expressed as a percentage in proportion to the vehicle standard treated cells, the GI50 (nM) values were calculated using GraphPad Prism 8.3.0 (GraphPad software Inc., San Diego), and the results were shown in Table 3 below.

Compound: COc1cc(Nc2nc(N3OCC[C@H]3c3ccccc3)c3cc[nH]c3n2)ccc1N1CCC(N2CCN(CCO)CC2)CC1 [Example 90, (S)-2-(4-(1-(2-methoxy-4-((4-(3-phenylisoxazolidin-2-yl)-7H-pyrrolo[2,3-d]pyrimidin-2-yl)amino)phenyl)piperidin-4-yl)piperazin-1-yl)ethan-1-ol]
- IC50 (human FLT3-ITD enzyme): 250 to 500 nM
- IC50 (human GST-HPK1 (1-346)): ≥ 250 nM
- GI50 (MCF-7 cells): > 500 nM

Compound: OCCN1CC[C@@H](Oc2cc(Nc3nc(N4OCC[C@H]4c4ccccc4)c4sccc4n3)cc(C3CC3)c2)C1 [Example 65, 2-((R)-3-(3-cyclopropyl-5-((4-((S)-3-phenylisoxazolidin-2-yl)thieno[3,2-d]pyrimidin-2-yl)amino)phenoxy)pyrrolidin-1-yl)ethan-1-ol]
- IC50 (human FLT3-ITD enzyme): > 500 nM
- IC50 (human GST-HPK1 (1-346)): > 500 nM
- GI50 (MCF-7 cells): > 500 nM

Compound: CN(C)[C@H]1CCN(c2cccc(Nc3nc(N4OCC[C@H]4c4ccccc4)c4cc[nH]c4n3)c2)C1 [Example 99, N-(3-((S)-3-(dimethylamino)pyrrolidin-1-yl)phenyl)-4-((S)-3-phenylisoxazolidin-2-yl)-7H-pyrrolo[2,3-d]pyrimidin-2-amine]
- IC50 (human FLT3-ITD enzyme): > 500 nM
- IC50 (human GST-HPK1 (1-346)): > 500 nM
- GI50 (MCF-7 cells): > 500 nM

Compound: COc1cc(Nc2nc(N3OCC[C@H]3c3ccccc3)c3sccc3n2)cc(C(=O)N2CCN(CCO)CC2)c1 [Example 66, (S)-(4-(2-hydroxyethyl)piperazin-1-yl)(3-methoxy-5-((4-(3-phenylisoxazolidin-2-yl)thieno[3,2-d]pyrimidin-2-yl)amino)phenyl)methanone]
- IC50 (human FLT3-ITD enzyme): > 500 nM
- IC50 (human GST-HPK1 (1-346)): > 500 nM
- GI50 (MCF-7 cells): > 500 nM

Compound: CN1CCC(NC(=O)c2ccc(Nc3nc(N4OCC[C@H]4c4ccccc4)c4cc[nH]c4n3)cc2)CC1 [Example 95, (S)-N-(1-methylpiperidin-4-yl)-4-((4-(3-phenylisoxazolidin-2-yl)-7H-pyrrolo[2,3-d]pyrimidin-2-yl)amino)benzamide]
- IC50 (human FLT3-ITD enzyme): > 500 nM
- IC50 (human GST-HPK1 (1-346)): ≥ 250 nM
- GI50 (MCF-7 cells): > 500 nM

Compound: COc1cc(N2CCC(N3CCN(C)CC3)CC2)ccc1Nc1nc(N2OCC[C@H]2c2ccccc2)c2c(C#N)c[nH]c2n1 [Example 121, (S)-2-((2-methoxy-4-(4-(4-methylpiperazin-1-yl)piperidin-1-yl)phenyl)amino)-4-(3-phenylisoxazolidin-2-yl)-7H-pyrrolo[2,3-d]pyrimidine-5-carbonitrile]
- IC50 (human FLT3-ITD enzyme): > 500 nM
- IC50 (human GST-HPK1 (1-346)): > 500 nM
- GI50 (MCF-7 cells): ≥ 250 nM

Compound: COc1cc(Nc2nc(N3N=CCC3c3ccccc3)c3sccc3n2)cc(C(=O)N2CCN(CCO)CC2)c1 (stereo not drawn) [Example 15, (4-(2-hydroxyethyl)piperazin-1-yl)(3-methoxy-5-((4-(5-phenyl-4,5-dihydro-1H-pyrazol-1-yl)thieno[3,2-d]pyrimidin-2-yl)amino)phenyl)methanone]
- IC50 (human FLT3-ITD enzyme): > 500 nM
- IC50 (human GST-HPK1 (1-346)): > 500 nM
- GI50 (MCF-7 cells): > 500 nM

Compound: CN(C)[C@@H]1CCN(c2cccc(Nc3nc(N4OCC[C@@H]4c4ccccc4)c4cc[nH]c4n3)c2)C1 [Example 125, N-(3-((R)-3-(dimethylamino)pyrrolidin-1-yl)phenyl)-4-((R)-3-phenylisoxazolidin-2-yl)-7H-pyrrolo[2,3-d]pyrimidin-2-amine]
- IC50 (human FLT3-ITD enzyme): > 500 nM
- IC50 (human GST-HPK1 (1-346)): > 500 nM
- GI50 (MCF-7 cells): > 500 nM

Compound: OCCN1CC[C@@H](Oc2cc(Nc3nc(N4N=CCC4c4ccccc4)c4sccc4n3)cc(C3CC3)c2)C1 (stereo partly drawn) [Example 14, 2-((3R)-3-(3-cyclopropyl-5-((4-(5-phenyl-4,5-dihydro-1H-pyrazol-1-yl)thieno[3,2-d]pyrimidin-2-yl)amino)phenoxy)pyrrolidin-1-yl)ethan-1-ol]
- IC50 (human FLT3-ITD enzyme): > 500 nM
- IC50 (human GST-HPK1 (1-346)): > 500 nM
- GI50 (MCF-7 cells): > 500 nM

Compound: CN1C[C@H]2C[C@@H]1CN2c1cc(Nc2nc(N3OCC[C@H]3c3ccccc3)c3cc[nH]c3n2)cc(S(C)(=O)=O)c1 [Example 92, N-(3-((1R,4R)-5-methyl-2,5-diazabicyclo[2.2.1]heptan-2-yl)-5-(methylsulfonyl)phenyl)-4-((S)-3-phenylisoxazolidin-2-yl)-7H-pyrrolo[2,3-d]pyrimidin-2-amine]
- IC50 (human FLT3-ITD enzyme): > 500 nM
- IC50 (human GST-HPK1 (1-346)): ≥ 250 nM
- GI50 (MCF-7 cells): > 500 nM

Compound: CN(C)[C@@H]1CCN(c2cccc(Nc3nc(N4OCC[C@H]4c4ccccc4)c4sccc4n3)c2)C1 [Example 61, N-(3-((R)-3-(dimethylamino)pyrrolidin-1-yl)phenyl)-4-((S)-3-phenylisoxazolidin-2-yl)thieno[3,2-d]pyrimidin-2-amine]
- IC50 (human FLT3-ITD enzyme): > 500 nM
- IC50 (human GST-HPK1 (1-346)): > 500 nM
- GI50 (MCF-7 cells): > 500 nM

Compound: CN(C)[C@H]1CCN(c2cccc(Nc3nc(N4OCC[C@@H]4c4ccccc4)c4cc[nH]c4n3)c2)C1 [Example 126, N-(3-((S)-3-(dimethylamino)pyrrolidin-1-yl)phenyl)-4-((R)-3-phenylisoxazolidin-2-yl)-7H-pyrrolo[2,3-d]pyrimidin-2-amine]
- IC50 (human FLT3-ITD enzyme): > 500 nM
- IC50 (human GST-HPK1 (1-346)): > 500 nM
- GI50 (MCF-7 cells): > 500 nM

Compound: CN(C)[C@@H]1CCN(c2cccc(Nc3nc(N4OCC[C@@H]4c4ccccc4)c4sccc4n3)c2)C1 [Example 63, N-(3-((R)-3-(dimethylamino)pyrrolidin-1-yl)phenyl)-4-((R)-3-phenylisoxazolidin-2-yl)thieno[3,2-d]pyrimidin-2-amine]
- IC50 (human FLT3-ITD enzyme): > 500 nM
- IC50 (human GST-HPK1 (1-346)): > 500 nM
- GI50 (MCF-7 cells): > 500 nM

Compound: CN1CCN(c2ccc(Nc3nc(N4N=CCC4c4ccccc4)c4cc[nH]c4n3)cc2)CC1 (stereo not drawn) [Example 68, N-(4-(4-methylpiperazin-1-yl)phenyl)-4-(5-phenyl-4,5-dihydro-1H-pyrazol-1-yl)-7H-pyrrolo[2,3-d]pyrimidin-2-amine]
- IC50 (human FLT3-ITD enzyme): 250 to 500 nM
- IC50 (human GST-HPK1 (1-346)): > 500 nM
- GI50 (MCF-7 cells): > 500 nM
